The IC50 is the point on the concentration scale where inhibition reaches its midpoint. Low values mean inhibition by little substance, high ones a need for much substance.

Converted amounts (≈) assume the structure as drawn. Where a name gives a salt, the structure may show the parent alone. Bounds are passed on as bounds.

For one data set, the system named is TNF-α production. Description: Inhibition of LPS-induced TNF-α production in RAW 264.7 (ELISA). The data set is classed as cell-based, murine. Conditions: Mus musculus, RAW264.7, LPS-induced RAW 264.7, n = 3. The procedure: The tumor necrosis factor-alpha (TNF-α) is the principal mediator of inflammation in response to gram-negative bacteria. It is mainly produced by LPS-activated mononuclear phagocytes. The TNF- α ELISA can quantify TNF-α in the supernatant of cell culture medium. The assay was carried out using the TNF-alpha ELISA kit (Thermo Fisher® scientific, USA). The murine macrophage cell line (RAW 264.7) was cultured in DMEM medium containing 10% heat-inactivated FBS, 10^4 µg/mL P/S. Firstly, the viable cells were counted using trypan blue exclusion in a haemocytometer. The single cell suspension of murine macrophage cell line was diluted with the medium to provide an optimal density of 10^5. The cell suspension was seeded, in a 100 µL/well, in 96-well plates and incubated at 37 °C with 5% CO2 atmosphere at 95% humidity for 24 h. […] Then, the test sample was added and incubated for 24 h. The control included 2% DMSO solution mixed with the medium, in place of the test samples in the analyses. This protocol was followed according to TNF-α ELISA kit (Thermo Fisher® scientific, USA). […] The concentrations of TNF- α in the wells were measured with a microplate reader at 450 nm. The % inhibition of TNF-α production was calculated using the equation below, and the IC50 values were calculated using the Prism program. […]
On the technique in general: In an ELISA, binding on a coated surface is turned into a signal by an enzyme label.

The nature of data set [1]: %cytotoxicity reported with the TNF-α assay. The data set is classed as cell-based, murine. Conditions: mouse, RAW 264.7 cells, n = 3, read-out: [%cytotoxicity] at conc. 100 µg/mL (converted). The protocol: Table 7 Anti-inflammatory on LPS-induced tumor necrosis factor-alpha production of D.cochinchinensis and PSD remedy | column: Inhibition of TNF-α production / %Inhibition and [%cytotoxicity] at conc. 100 µg/mL

For data set [2], the system named is hepatocarcinoma cell line (HepG2). Description: Cytotoxic activity, antiproliferative SRB assay, HepG2. In kind it is cell-based, human. Conditions: for IC50: Homo sapiens, HepG2, mean ± SEM, n = 3; for IC50 / Cytotoxicity against HepG2 (in words): SRB assay; for Selective index (SI), HepG2: IC50 of non-cancerous cells (HaCaT) / IC50 of HepG2. The procedure:
(§1) Hepatocellular carcinoma (HepG2; ATTC No. HB-8065) was cultured in Minimum Essential Media (MEM) supplemented with 10% heated-inactivated fetal bovine serum (FBS) and 1% penicillin–streptomycin (P/S). Cholangiocarcinoma cell line (KKU-M156) was cultured in HAM's F12 supplemented with 10% FBS, 1% P/S, and 12.5 mM HEPES. In addition, one non-cancerous human keratinocyte cell line (HaCaT; No. 300493-SF) was cultured in Dulbecco's Modified Eagle Medium (DMEM) supplemented with 10% FBS and 1% P/S [13].
(§2) This assay followed the previously described protocol. The various concentrations (1, 10, 50, and 100 µg/mL) of the crude extracts were investigated against two human cancer cell lines and one non-cancerous cell line. The cell lines were washed with PBS and the cells were detached with 0.025% trypsin–EDTA to make a single cell suspension. A 5 mL medium was then added to the flask to stop the trypsin–EDTA activity. The viable cells were counted by trypan blue exclusion in a haemocytometer. A single-cell suspensions density of HepG2, KKU-M156, and HaCaT were diluted with each medium to give optimal densities of 2 × 10^3, 3 × 10^3, and 8 × 10^3 cells/well, respectively. The 100 µL/well of these cell suspensions were seeded in 96-well plates and incubated at 37 °C with 5% CO2 at 95% humidity for 24 h. Then, 100 µL of a sample solution was added to each well. The control was the medium mixed with 2% DMSO. The 96-well plates were incubated at 37 °C with 5% CO2 at 95% humidity for 72 h. The mixture in the well was removed and washed with 200 µL fresh medium. The 96-well plate was further incubated for 72 h, then the cell in 96-well plates was fixed with 40%TCA and washed with water five times. Finally, the fixed cell in the 96-well plate was strained with Sulforhodamine B sodium salt and the percentage of inhibition of cell growth was measured colorimetrically using the SRB assay. The herbal extract and pure compounds were considered to have potent cytotoxicity if the IC50 values were ≤ 20 and ≤ 4 µg/mL, respectively. The % inhibition of cell growth was calculated by the equation shown below, and the IC50 values were calculated using the Prism program.
(§3) %Inhibitionofcellgrowth=MeanofODcontrol-MeanofODsample÷[…]×100 where: OD control = OD of medium with 2% of DMSO and OD sample = OD of crude extract.
(§4) SelectivityindexSI=IC50ofnon-cancerouscellline÷IC50ofcancercellline
(In general: Sulforhodamine B stains cellular protein and so reports cell mass.)

In data set [3] the test system is cholangiocarcinoma cell line (KKU-M156). Description: Cytotoxic activity, antiproliferative SRB assay, KKU-M156. In kind it is cell-based, human. Particulars: for IC50: Homo sapiens, KKU-M156, mean ± SEM, n = 3; for IC50 / Cytotoxicity against KKU-M156 (in words): SRB assay; for Selective index (SI), KKU-M156: IC50 of non-cancerous cells (HaCaT) / IC50 of KKU-M156. The protocol: as §1, §2, §3, §4

The test system of data set [4] is human keratinocyte cell line (HaCaT). Description: Cytotoxic activity, antiproliferative SRB assay, non-cancerous HaCaT. Conditions: mean ± SEM, n = 3. The data set is classed as cell-based. The procedure:
as §1, §2, §3

Consider `CC(=O)Nc1ccc(O)cc1` [Acetaminophen], for which the inhibition at 100 µg/mL with TNF-α production (100 µg/mL, read-out: %Inhibition of TNF-α production at conc. 100 µg/mL) stood at 18.7 ± 1.93%. The same molecule had an IC50 with TNF-α production above 100 µg/mL. In data set [1], the cytotoxicity at 100 µg/mL is 59.2%.
`COc1cc(OC)c(CCC(=O)c2ccc(O)cc2)c(OC)c1` [Compound 1, 1-(4-hydroxyphenyl)-3-(2,4,6-trimethoxyphenyl)propan-1-one]: in data set [2], the 50% inhibitory concentration (IC50) came to 20 ± 0.46 µg/mL (≈ 63.3 µM); the “Selective index (SI), HepG2” value is 4.3; the “Cytotoxicity against HepG2 (in words)” value was “moderate cytotoxicity”. In addition, in data set [3], the concentration for half-maximal inhibition (IC50) turned out to be 21.3 ± 3.17 µg/mL (≈ 67.2 µM); the “Selective index (SI), KKU-M156” value was 4.1; the “Cytotoxicity against KKU-M156 (in words)” value is “moderate cytotoxicity”. For the same molecule, 86.1 ± 2.13 µg/mL (≈ 272 µM) corresponded to half-maximal inhibition in data set [4] (IC50).
Take `COc1ccc(CCC(=O)c2ccc(O)cc2)c(OC)c1` [Compound 2]: in data set [2], the half-inhibitory concentration (IC50) stood at 20.7 ± 0.49 µg/mL (≈ 72.3 µM); the “Selective index (SI), HepG2” value worked out at 3.2; the “Cytotoxicity against HepG2 (in words)” value is “moderate cytotoxicity”. Besides, in data set [3], half-maximal inhibition (IC50) was put at 33.2 ± 2.1 µg/mL (≈ 116 µM); the “Selective index (SI), KKU-M156” value was found to be 2.0; the “Cytotoxicity against KKU-M156 (in words)” value was “moderate cytotoxicity”. The same molecule displayed an IC50 in data set [4] of 66 ± 0.68 µg/mL (≈ 231 µM).
On to `COc1ccc(C[C@]2(O)COc3cc(O)cc(O)c3C2=O)cc1` [Compound 3, (3S)-3,5,7-trihydroxy-3-[(4-methoxyphenyl)methyl]-2H-chromen-4-one], for which, in data set [2], the half-inhibitory concentration (IC50) is 25.8 ± 1.56 µg/mL (≈ 81.4 µM); the “Selective index (SI), HepG2” value was determined as 1.8; the “Cytotoxicity against HepG2 (in words)” value is reported as “moderate cytotoxicity”. In data set [3], the concentration for half-maximal inhibition (IC50) was 7.12 ± 0.56 µg/mL (≈ 22.5 µM); the “Selective index (SI), KKU-M156” value was 6.5; the “Cytotoxicity against KKU-M156 (in words)” value is reported as “moderate cytotoxicity”. In data set [4], this molecule gave a concentration for half-maximal inhibition (IC50) of 46.5 ± 0.88 µg/mL (≈ 147 µM).
Take `CC[C@]1(O)C[C@H]2CN(CCc3c([nH]c4ccccc34)[C@@](C(=O)OC)(c3cc4c(cc3OC)N(C=O)[C@H]3[C@@](O)(C(=O)OC)[C@H](OC(C)=O)[C@]5(CC)C=CCN6CC[C@]43[C@@H]65)C2)C1` [Vincristine sulfate, reference compound]: the half-maximal inhibitory concentration (IC50) in data set [2] came out at 0.012 ± 0.0005 µg/mL; in data set [3] it was 0.0026 ± 0.001 µg/mL; in data set [4], 7e-06 µg/mL. In data set [2], the “Selective index (SI), HepG2” value is 0.00058.

The values are drawn from article PMC9373486, “Exploring in vitro anti-proliferative and anti-inflammatory activities of Prasachandaeng remedy, and its bioactive compounds” (BMC Complementary Medicine and Therapies, 2022).
